Active and inactive are the calls of the source.
What was measured:
Staphylococcus aureus = experiment: Inhibitors of Bacterial Quorum Sensing Structure Activity Relationship (SAR) Analysis: Dose Response Assay. [Related pubchem assays: 700, 527 ]; assay type: functional, organism-based
[1] = molecular target: Acyl-homoserine lactone acylase PvdQ (Pseudomonas aeruginosa (strain LESB58), UniProt Q9I194); experiment: PvdQ acylase enzyme activity blockers – biochemical, fluorescence, plate reader and imaging, cherry-picks, dose response (AID 493231)
[2] = molecular target: Mothers against decapentaplegic homolog 3 (Homo sapiens, UniProt P84022); experiment: blockers of Smad3 complex formation in lysate – cell lysate, secondary confirmation, chemiluminescent ELISA, HEK293 lysate, dose response (AID 1058); assay type: functional
Wee1-like protein kinase = Wee1-like protein kinase (Homo sapiens, UniProt P30291); experiment: HeLa cell cycle G2/M accumulation – FACS, mechanism study for Wee1 degradation inhibitor project, late-stage follow-up, panel member Wee1 Degradation (AID 2088)
[3] = molecular target: G2/mitotic-specific cyclin-B1 (Homo sapiens, UniProt P14635); experiment: HeLa cell cycle G2/M accumulation – FACS, mechanism study for Wee1 degradation inhibitor project, late-stage follow-up, panel member Cyclin B Degradation (AID 2088)
[4] = molecular target: Cyclin-dependent kinase 5/CDK5 activator 1 (Homo sapiens, UniProt Q00535); experiment: blockade of human CDK5 activity – biochemical, cherry-picked samples, set 2, dose response (AID 504545)
[5] = molecular target: Protein phosphatase methylesterase 1 (Homo sapiens, UniProt Q9Y570); experiment: endogenous PME-1 and serine hydrolase inhibition – cell lysate, mouse brain cytosol, FP-rhodamine, gel ABPP, selectivity assay for PME-1 inhibitor project, dose response, panel member PME-1 Assay Panel member description: Inhibition of endogenously expressed PME-1 (AID 2366)
[6] = NIH-3T3 fibroblast cytotoxicity, dose response, cytotoxicity control, cell-based, fluorescence, Alamar Blue, secondary assay (AID 2327); assay type: functional;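 further: NIH-3T3 mouse fibroblasts cultured with fluconazole at 8 µg/mL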
[7] = decrease of insulin promoter-GFP reporter – imaging, high-content screening, mouse beta cells (AID 1628); assay type: functional; conditions: MIN6
[8] = tested on: Streptococcus sp. 'group A'; experiment: Streptococcus pyogenes SK(-)GAS viability under kanamycin – luminescence, BacTiterGlo, confirmation, counter-screen for streptokinase expression inhibitor project, dose response (AID 1900); assay type: functional, organism-based
[9] = MIN6 cell viability loss – mouse insulinoma, cytotoxicity control, dose response (AID 2122); assay type: functional;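 further: confirmatory high-throughput counterscreen run to flag cytotoxic compounds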
[10] = fluconazole-exposed Candida albicans growth modulators – fluorescence, retest, confirmation (AID 2467); assay type: functional, cell-based
[11] = Trypanosoma cruzi growth suppression in host cells – NIH3T3 host cells, beta-gal luminescence, confirmation (AID 2044); assay type: functional, cell-based;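 further: intracellular parasites grown in NIH/3T3 mouse fibroblasts as host cells; luminescent beta-galactosidase reporter signal from transgenic T. cruzi replicating inside host cells; inhibitors lower the luminescence signal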
[12] = NIH3T3 cell viability loss – ATP luminescence, mouse fibroblasts, counter-screen, dose response (AID 2010); assay type: functional, cell-based;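 further: cells exposed to compound for about 90 hours before reading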
Streptococcus = experiment: GAS UMAA2166 growth inhibition – luminescence, BacTiterGlo, counter-screen for streptokinase expression inhibitor project, dose response (AID 1915); assay type: functional, organism-based;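 further: potency for reduction of bacterial viability or growth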
[13] = molecular target: C-C chemokine receptor type 6 (Homo sapiens, UniProt P51684); experiment: antagonism of CCR6 beta-arrestin recruitment – cell-based, luminescent beta-arrestin readout, dose response (AID 504728); assay type: functional
Beta-galactosidase = Beta-galactosidase (Escherichia coli, UniProt Q8VNN2); experiment: detection-enzyme interference by beta-gal modulators – biochemical, E. coli enzyme, set 3, artefact control for CCR6 antagonist project, dose response (AID 504712); assay type: functional
Paired box protein Pax-8 = Paired box protein Pax-8 (Homo sapiens, UniProt Q06710); experiment: PAX8 transcriptional activity inhibition in RMG-I – RMG-I cells, luciferase, cherry-pick, dose response (AID 687027); assay type: functional, cell-based;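 further: luciferase reporter driven by Pax8 target thyroperoxidase promoter measured by SteadyGlo luminescence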
[14] = general cell-killing toxicity readout – plate reader, dry powder samples, cytotoxicity control for PAX8 inhibitor project, dose response (AID 743021); assay type: functional, cell-based
HeLa = experiment: viability loss in HeLa cells – cell-based, 24 h, cherry-picked samples, cytotoxicity control, dose response (AID 504726); assay type: functional; conditions: Homo sapiens;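 further: potency for cytotoxicity as loss of luminescence signal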
[15] = molecular target: T1, Polyadenylate-binding protein 1 (Homo sapiens, UniProt P11940); experiment: MLLE binding blockers, Cy5 peptide tracer – biochemical, fluorescence polarization, Cy5-PAM2 peptide, secondary, miRNA deadenylation inhibitor project, dose response (AID 602260); assay type: functional; conditions: read-out: IC50_Mean
[16] = molecular target: T1, Polyadenylate-binding protein 1; experiment: MLLE domain peptide-binding blockers, IC50 – biochemical, fluorescence polarization, FITC-PAM2 peptide, dose response (AID 602259); assay type: functional; conditions: read-out: IC50_Mean
[17] = inhibition of ARNT PAS-B/TACC3 complex formation – biochemical, AlphaScreen, cherry-picked samples, confirmation (AID 651703); assay type: functional, Homo sapiens;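 further: His-tagged ARNT PAS-B domain paired with GST-TACC3 E629A dimer coactivator fragment; potency of inhibitors that break up the complex and lower AlphaScreen signal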
[18] = viability loss in THP-1 monocytes – THP-1 cells, cytotoxicity control for Vif-APOBEC3G degradation inhibitor project, dose response (AID 1117359); assay type: functional; conditions: THP-1
Protein Rev = Protein Rev (Human immunodeficiency virus type 1 group M subtype B (isolate WMJ22)(HIV-1), UniProt P05866); experiment: inhibitors of Rev protein–RRE RNA complex – biochemical, protein-RNA interaction, dose response (AID 842); set-up: species or system Human immunodeficiency virus 1
[19] = molecular target: Metabotropic glutamate receptor 4 (Homo sapiens, UniProt Q14833); experiment: Modulation of the Metabotropic Glutamate Receptor mGluR4: Potency at human mGluR4. Modulation of intracellular Ca2+ using Fluo-4, AM, in CHO expressing recombinant receptor [Related pubchem assays (depositor defined):AID2437, AID2807]; assay type: functional, cell-based
[20] = molecular target: Metabotropic glutamate receptor 4 (Rattus norvegicus, UniProt P31423); experiment: Modulation of the Metabotropic Glutamate Receptor mGluR4: Rat PAM Potency. [Related pubchem assays (depositor defined):AID2437, AID2807]; assay type: functional
Sequence of Metabotropic glutamate receptor 4 (Rattus norvegicus, UniProt P31423) (P31423 whole entry): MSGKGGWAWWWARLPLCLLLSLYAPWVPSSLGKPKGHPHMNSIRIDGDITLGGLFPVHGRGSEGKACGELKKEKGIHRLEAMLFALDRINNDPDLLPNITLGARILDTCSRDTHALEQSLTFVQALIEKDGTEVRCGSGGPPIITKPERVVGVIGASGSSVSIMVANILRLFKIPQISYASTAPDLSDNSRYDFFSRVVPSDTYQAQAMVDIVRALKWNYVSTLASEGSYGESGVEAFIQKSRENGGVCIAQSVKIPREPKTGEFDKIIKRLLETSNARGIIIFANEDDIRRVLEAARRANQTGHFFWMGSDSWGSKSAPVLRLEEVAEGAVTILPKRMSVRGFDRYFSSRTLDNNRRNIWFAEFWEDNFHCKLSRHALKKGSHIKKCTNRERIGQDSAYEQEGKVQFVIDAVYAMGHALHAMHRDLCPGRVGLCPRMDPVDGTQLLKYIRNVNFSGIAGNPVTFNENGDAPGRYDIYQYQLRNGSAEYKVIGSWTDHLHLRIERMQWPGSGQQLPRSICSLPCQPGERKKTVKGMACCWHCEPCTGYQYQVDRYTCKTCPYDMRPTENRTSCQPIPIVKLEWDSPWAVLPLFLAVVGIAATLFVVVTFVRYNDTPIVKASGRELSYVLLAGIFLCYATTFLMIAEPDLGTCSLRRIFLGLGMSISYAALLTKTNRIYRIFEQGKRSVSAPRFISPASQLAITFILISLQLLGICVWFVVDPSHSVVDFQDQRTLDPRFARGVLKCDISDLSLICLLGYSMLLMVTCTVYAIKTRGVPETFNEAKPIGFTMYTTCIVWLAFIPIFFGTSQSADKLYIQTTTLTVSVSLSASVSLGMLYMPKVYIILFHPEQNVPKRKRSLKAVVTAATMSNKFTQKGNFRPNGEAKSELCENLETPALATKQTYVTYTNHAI

T1 sequence (P11940 whole entry, the tested form may be a part): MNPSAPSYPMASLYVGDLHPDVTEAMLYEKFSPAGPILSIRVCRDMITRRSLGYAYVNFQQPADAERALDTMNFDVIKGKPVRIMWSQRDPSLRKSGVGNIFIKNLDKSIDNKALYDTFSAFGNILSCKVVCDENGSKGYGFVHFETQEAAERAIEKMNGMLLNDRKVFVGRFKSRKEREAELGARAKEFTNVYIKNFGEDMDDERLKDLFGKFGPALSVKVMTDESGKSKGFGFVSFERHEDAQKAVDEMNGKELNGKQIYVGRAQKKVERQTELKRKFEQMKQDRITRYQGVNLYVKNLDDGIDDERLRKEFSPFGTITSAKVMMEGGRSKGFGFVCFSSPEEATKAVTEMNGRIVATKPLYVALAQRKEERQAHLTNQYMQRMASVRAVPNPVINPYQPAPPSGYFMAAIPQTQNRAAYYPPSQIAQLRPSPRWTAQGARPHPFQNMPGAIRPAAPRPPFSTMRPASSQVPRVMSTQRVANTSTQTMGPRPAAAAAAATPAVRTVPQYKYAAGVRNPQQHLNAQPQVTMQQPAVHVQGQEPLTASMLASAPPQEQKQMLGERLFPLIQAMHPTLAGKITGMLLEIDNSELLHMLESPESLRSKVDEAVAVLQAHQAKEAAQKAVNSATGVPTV
Sequence of C-C chemokine receptor type 6 (P51684 whole entry): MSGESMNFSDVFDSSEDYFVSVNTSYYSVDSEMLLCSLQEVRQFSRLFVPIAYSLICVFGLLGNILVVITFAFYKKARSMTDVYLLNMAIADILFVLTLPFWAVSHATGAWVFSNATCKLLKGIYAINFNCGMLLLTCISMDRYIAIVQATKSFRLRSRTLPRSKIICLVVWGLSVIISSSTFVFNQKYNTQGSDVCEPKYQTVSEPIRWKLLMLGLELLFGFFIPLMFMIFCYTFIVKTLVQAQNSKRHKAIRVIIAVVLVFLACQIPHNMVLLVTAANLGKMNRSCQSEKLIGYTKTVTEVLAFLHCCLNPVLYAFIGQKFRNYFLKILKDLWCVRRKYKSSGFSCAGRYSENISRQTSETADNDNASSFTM
Sequence of Wee1-like protein kinase (P30291 whole entry): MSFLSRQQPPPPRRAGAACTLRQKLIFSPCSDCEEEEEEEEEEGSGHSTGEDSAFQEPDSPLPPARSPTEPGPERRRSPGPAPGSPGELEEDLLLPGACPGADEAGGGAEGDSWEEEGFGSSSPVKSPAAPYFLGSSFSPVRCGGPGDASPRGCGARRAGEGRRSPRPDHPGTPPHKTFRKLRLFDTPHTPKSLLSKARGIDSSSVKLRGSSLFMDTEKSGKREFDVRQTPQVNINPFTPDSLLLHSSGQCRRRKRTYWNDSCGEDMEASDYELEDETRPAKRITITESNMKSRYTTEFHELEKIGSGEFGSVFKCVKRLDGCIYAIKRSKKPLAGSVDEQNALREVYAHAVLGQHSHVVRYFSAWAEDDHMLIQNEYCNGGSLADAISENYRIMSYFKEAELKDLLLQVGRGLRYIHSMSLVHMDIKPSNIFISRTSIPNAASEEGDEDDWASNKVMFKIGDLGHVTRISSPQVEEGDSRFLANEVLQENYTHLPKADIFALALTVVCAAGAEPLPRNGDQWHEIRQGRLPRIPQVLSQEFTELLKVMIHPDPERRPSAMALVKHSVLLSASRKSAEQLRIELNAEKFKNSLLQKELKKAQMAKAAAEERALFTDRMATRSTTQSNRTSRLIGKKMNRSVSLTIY
Sequence of Protein Rev (P05866 whole entry): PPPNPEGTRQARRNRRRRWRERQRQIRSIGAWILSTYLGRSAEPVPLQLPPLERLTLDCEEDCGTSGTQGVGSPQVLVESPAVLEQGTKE
Sequence of Cyclin-dependent kinase 5/CDK5 activator 1 (Q00535 whole entry): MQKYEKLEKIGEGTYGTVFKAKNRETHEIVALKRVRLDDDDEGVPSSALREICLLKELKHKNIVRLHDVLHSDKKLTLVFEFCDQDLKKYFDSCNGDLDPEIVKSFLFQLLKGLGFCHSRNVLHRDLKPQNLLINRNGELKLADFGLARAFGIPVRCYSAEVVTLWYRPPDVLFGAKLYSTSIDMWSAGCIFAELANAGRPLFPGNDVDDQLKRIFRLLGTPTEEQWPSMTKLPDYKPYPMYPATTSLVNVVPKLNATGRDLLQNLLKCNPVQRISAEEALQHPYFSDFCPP
Sequence of Cyclin-dependent kinase 5/CDK5 activator 1 (Q15078 whole entry, further chain): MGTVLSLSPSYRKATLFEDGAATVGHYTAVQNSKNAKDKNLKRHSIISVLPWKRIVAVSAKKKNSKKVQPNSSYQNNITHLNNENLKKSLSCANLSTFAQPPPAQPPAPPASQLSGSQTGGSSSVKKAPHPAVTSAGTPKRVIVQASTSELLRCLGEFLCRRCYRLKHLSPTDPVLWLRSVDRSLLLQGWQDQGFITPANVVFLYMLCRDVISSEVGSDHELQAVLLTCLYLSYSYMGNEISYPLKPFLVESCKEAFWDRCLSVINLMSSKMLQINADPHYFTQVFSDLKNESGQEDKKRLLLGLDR
Sequence of Mothers against decapentaplegic homolog 3 (P84022 whole entry): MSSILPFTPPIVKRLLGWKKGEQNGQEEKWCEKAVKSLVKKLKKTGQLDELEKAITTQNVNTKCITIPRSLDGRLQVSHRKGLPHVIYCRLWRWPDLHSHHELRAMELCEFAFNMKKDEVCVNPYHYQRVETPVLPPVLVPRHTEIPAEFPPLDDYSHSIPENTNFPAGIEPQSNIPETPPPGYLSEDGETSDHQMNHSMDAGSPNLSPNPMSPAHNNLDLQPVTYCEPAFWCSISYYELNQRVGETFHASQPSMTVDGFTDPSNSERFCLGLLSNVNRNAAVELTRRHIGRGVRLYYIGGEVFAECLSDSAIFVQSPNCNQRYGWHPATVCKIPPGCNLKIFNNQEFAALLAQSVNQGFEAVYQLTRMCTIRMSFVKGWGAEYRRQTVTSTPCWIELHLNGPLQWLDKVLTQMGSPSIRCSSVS
Sequence of Acyl-homoserine lactone acylase PvdQ (Q9I194 24-193 limits assumed): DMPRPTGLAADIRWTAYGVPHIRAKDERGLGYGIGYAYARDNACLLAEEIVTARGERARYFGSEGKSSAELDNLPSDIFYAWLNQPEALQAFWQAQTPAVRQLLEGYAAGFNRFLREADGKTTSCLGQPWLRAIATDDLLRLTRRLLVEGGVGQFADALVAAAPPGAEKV
Sequence of Acyl-homoserine lactone acylase PvdQ (Q9I194 217-762 limits assumed): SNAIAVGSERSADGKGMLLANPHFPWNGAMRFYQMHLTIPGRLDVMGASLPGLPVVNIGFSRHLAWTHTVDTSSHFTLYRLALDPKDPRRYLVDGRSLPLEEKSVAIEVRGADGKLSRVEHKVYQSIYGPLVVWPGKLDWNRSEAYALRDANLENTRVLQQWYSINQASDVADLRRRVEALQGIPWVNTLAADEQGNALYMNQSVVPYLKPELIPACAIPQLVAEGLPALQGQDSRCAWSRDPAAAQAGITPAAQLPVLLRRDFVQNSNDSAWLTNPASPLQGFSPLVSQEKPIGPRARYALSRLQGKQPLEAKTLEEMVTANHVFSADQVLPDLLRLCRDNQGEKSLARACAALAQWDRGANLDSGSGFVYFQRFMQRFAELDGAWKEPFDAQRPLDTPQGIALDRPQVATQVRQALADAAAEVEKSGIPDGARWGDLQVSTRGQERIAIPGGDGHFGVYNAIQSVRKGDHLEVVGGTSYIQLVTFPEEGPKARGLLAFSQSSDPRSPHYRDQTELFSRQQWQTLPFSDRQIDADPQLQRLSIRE
Sequence of Paired box protein Pax-8 (Q06710 whole entry): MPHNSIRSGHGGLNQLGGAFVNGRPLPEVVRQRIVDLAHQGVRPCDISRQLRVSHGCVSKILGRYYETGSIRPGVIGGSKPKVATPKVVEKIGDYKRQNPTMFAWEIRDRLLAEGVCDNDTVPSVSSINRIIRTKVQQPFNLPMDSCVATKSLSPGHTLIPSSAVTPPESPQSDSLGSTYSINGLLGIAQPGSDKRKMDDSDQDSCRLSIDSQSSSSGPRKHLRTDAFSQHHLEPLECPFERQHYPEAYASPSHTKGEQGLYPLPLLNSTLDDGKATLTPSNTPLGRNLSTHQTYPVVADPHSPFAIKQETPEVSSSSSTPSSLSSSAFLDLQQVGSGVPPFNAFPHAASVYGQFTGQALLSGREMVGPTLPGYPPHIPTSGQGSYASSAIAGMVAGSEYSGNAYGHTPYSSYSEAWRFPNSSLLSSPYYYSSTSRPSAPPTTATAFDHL

For `O=C(O)c1ccccc1NC(c1ccccc1)c1ccc(Cl)cc1` (stereo not drawn), which IC50 (Staphylococcus aureus) is on record?
The IC50 was 0.448 µM (active).

Which AC50 [1] does the source give for `Cc1cccc(NC(=O)Nc2cc(C)on2)c1` here?
Its AC50 is 7.61 µM (active).

Which IC50 [2] does the source give for `COc1cccc(C(c2cc3c(cc2O)OCO3)N2CCCC2)c1O` (stereo not drawn) here?
The IC50 was < 2.5 µM (not active).

Which results are given for `Cc1cccc(NC(=O)CCCOc2cc(=O)n(C)c3ccccc23)n1`?
EC50 (Wee1-like protein kinase): > 49.7 µM (inactive); EC50 [3]: > 49.7 µM (inactive)

Which AC50 [4] does the source give for `Cc1ccc(-n2nc(C)c3c2C(Br)C(C)(C)CC3=O)nc1` (stereo not drawn) here?
Its AC50 is 43.3 µM (active).

With `N#C/C(=C\c1cccn1S(=O)(=O)c1ccccc1)C(=O)c1ccccc1` as the molecule, how does the IC50 [5] read?
The IC50 was > 20 µM (inactive).

With `COc1cccc(/C=N/Nc2nc(Nc3ccc([N+](=O)[O-])cc3)nc(N3CCCC3)n2)c1O` as the molecule, how does the EC50 [6] read?
Its EC50 is 4.69 µM (active).

And the IC50 [7]?
Its IC50 is 2.8 µM (active).

What about the EC50 [8] of the same molecule?
Its EC50 is 3.77 µM (active).

And the IC50 [9]?
Its IC50 is 2.71 µM (active).

What about the EC50 [10] of the same molecule?
Its EC50 is > 38 µM (not active).

What about the EC50 [11] of the same molecule?
Its EC50 is 0.866 µM (active).

And the EC50 [12]?
Its EC50 is 8.48 µM (active).

What about the EC50 (Streptococcus) of the same molecule?
The EC50 was 12.1 µM (active).

And the IC50 [13]?
The IC50 was 1.64 µM (active).

And the IC50 (Beta-galactosidase)?
Its IC50 is > 66.6 µM (inactive).

What about the AC50 (Paired box protein Pax-8) of the same molecule?
Its AC50 is 5.65 µM (active).

And the AC50 [14]?
The AC50 was 20.9 µM (active).

Which results are given for `CN(Cc1cnc2nc(N)nc(N)c2n1)c1ccc(C(=O)NC(CCC(=O)O)C(=O)O)cc1` (stereo not drawn)?
AC50 (HeLa): 0.629 µM (active); IC50 [15]: 52.1 µM (inactive); IC50 [16]: 41.6 µM (inactive); AC50 [17]: 74.5 µM (active); CC50 [18]: 0.23 µM (active)

For `COc1ccc(Nc2nc(N)nc(CN(C)C3CCCCC3)n2)cc1`, which IC50 (Protein Rev) is on record?
Its IC50 is > 79.4 µM (not active).

What about the AC50 [17] of the same molecule?
The AC50 was 90.7 µM (active).

With `O=C(Nc1ccc2c(c1)OCO2)c1ccccn1` as the molecule, how does the EC50 [19] read?
Its EC50 is 9.66 µM (active).

And the EC50 [20]?
The EC50 was 7.17 µM (active).
